From US12116343B2, “Inhibitors of APOL1 and methods of using same” (Vertex Pharmaceuticals Incorporated, priority 2020, dated 2024)

These compounds were tested against T1, APOL1 G1 Protein (Homo sapiens, UniProt O14791, I384M/S342G) (assay: Trypanosoma brucei brucei lysis assay using APOL1 recombinant protein (AlamarBlue viability)). Details: Trypanosoma brucei brucei lysis, recombinant APOL1, AlamarBlue; read-out: Trypanosoma Assay (IC50).
T1 sequence (O14791 28-398 S342G/I384M): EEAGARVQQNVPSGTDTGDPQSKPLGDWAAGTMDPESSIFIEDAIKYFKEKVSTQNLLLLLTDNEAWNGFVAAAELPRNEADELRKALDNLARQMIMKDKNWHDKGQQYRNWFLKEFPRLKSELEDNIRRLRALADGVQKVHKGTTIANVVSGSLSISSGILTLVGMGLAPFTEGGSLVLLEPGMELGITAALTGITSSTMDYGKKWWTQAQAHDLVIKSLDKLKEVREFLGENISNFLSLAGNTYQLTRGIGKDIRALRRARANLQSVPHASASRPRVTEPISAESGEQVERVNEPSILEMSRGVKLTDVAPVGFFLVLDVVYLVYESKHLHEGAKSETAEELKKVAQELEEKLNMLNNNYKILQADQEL
Type: cell-based
In short: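 Bloodstream-form T. b. brucei Lister 427 VSG 221, 120,000 parasites/well in phenol red-free, FBS-free medium, lysed by recombinant APOL1 G1 with compound (10-point dose response, 0.1% DMSO final). Viability read by AlamarBlue fluorescence against a parasite standard curve.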

SMILES | IC50
O=C([C@H]1C[C@H](c2c(-c3ccc(F)cc3)[nH]c3c(F)cc(F)cc32)C1)N1CC(CO)C1 [Compound 223] | < 250 nM
C[C@@H](O)CNC(=O)[C@H]1C[C@H](c2c(-c3ccc(F)cc3)[nH]c3c(F)cc(F)cc32)C1 [Compound 175] | 250 to 1000 nM
O=C(NCC1(O)COC1)[C@H]1C[C@H](c2c(-c3ccc(F)cc3)[nH]c3c(F)cc(F)cc32)C1 [Compound 185] | 250 to 1000 nM
CS(=O)(=O)CCNC(=O)[C@H]1C[C@H](c2c(-c3ccc(F)cc3)[nH]c3c(F)cc(F)cc32)C1 [Compound 40] | > 1000 nM
Cc1noc(CNC(=O)[C@H]2C[C@H](c3c(-c4ccc(F)cc4)[nH]c4c(F)cc(F)cc43)C2)n1 [Compound 173] | < 250 nM
CC[C@@H](CO)NC(=O)[C@H]1C[C@H](c2c(-c3ccc(F)cc3)[nH]c3c(F)cc(F)cc32)C1 [Compound 204] | < 250 nM
O=C([C@H]1C[C@H](c2c(-c3ccc(F)cc3)[nH]c3c(F)cc(F)cc32)C1)N1CCOC[C@H]1CO [Compound 217] | 250 to 1000 nM
COCCNC(=O)[C@H]1C[C@H](c2c(-c3ccc(F)cc3)[nH]c3c(F)cc(F)cc32)C1 [Compound 12] | 250 to 1000 nM
CC(C)CC(NC(=O)[C@H]1C[C@H](c2c(-c3ccc(F)cc3)[nH]c3c(F)cc(F)cc32)C1)C(N)=O (stereo partly drawn) [Compound 30] | > 1000 nM
CC(C#N)(CO)NC(=O)[C@H]1C[C@H](c2c(-c3ccc(F)cc3)[nH]c3c(F)cc(F)cc32)C1 (stereo partly drawn) [Compound 191] | < 250 nM
C[C@@H](NC(=O)[C@H]1C[C@H](c2c(-c3ccc(F)cc3)[nH]c3c(F)cc(F)cc32)C1)C(N)=O [Compound 28] | > 1000 nM
CC[C@H](CO)NC(=O)[C@H]1C[C@H](c2c(-c3ccc(F)cc3)[nH]c3c(F)cc(F)cc32)C1 [Compound 203] | 250 to 1000 nM
O=C(NC[C@H](O)C(F)(F)F)[C@H]1C[C@H](c2c(-c3ccc(F)cc3)[nH]c3c(F)cc(F)cc32)C1 [Compound 176] | < 250 nM
O=C(NCC(F)(F)F)[C@H]1C[C@H](c2c(-c3ccc(F)cc3)[nH]c3c(F)cc(F)cc32)C1 [Compound 33] | > 1000 nM
O=C(N[C@H]1CC[C@@H]1O)[C@H]1C[C@H](c2c(-c3ccc(F)cc3)[nH]c3c(F)cc(F)cc32)C1 [Compound 178] | 250 to 1000 nM
COC[C@@H]1CCN1C(=O)[C@H]1C[C@H](c2c(-c3ccc(F)cc3)[nH]c3c(F)cc(F)cc32)C1 [Compound 220] | 250 to 1000 nM
CC(C)(CO)NC(=O)[C@H]1C[C@H](c2c(-c3ccc(F)cc3)[nH]c3c(F)cc(F)cc32)C1 [Compound 31] | 250 to 1000 nM
O=C(NC[C@H]1CC[C@@H](CO)O1)[C@H]1C[C@H](c2c(-c3ccc(F)cc3)[nH]c3c(F)cc(F)cc32)C1 [Compound 189] | > 1000 nM

SMILES | IC50
CN(C(=O)[C@H]1C[C@H](c2c(-c3ccc(F)cc3)[nH]c3c(F)cc(F)cc32)C1)C1COCC1O (stereo partly drawn) [Compound 205] | > 1000 nM
C#CC(CO)NC(=O)[C@H]1C[C@H](c2c(-c3ccc(F)cc3)[nH]c3c(F)cc(F)cc32)C1 (stereo partly drawn) [Compound 196] | < 250 nM
O=C(NCCn1cncn1)[C@H]1C[C@H](c2c(-c3ccc(F)cc3)[nH]c3c(F)cc(F)cc32)C1 [Compound 36] | < 250 nM
Cc1nnc(CNC(=O)[C@H]2C[C@H](c3c(-c4ccc(F)cc4)[nH]c4c(F)cc(F)cc43)C2)o1 [Compound 172] | < 250 nM
O=C(N[C@H]1CC[C@H]1O)[C@H]1C[C@H](c2c(-c3ccc(F)cc3)[nH]c3c(F)cc(F)cc32)C1 [Compound 181] | 250 to 1000 nM
O=C([C@H]1C[C@H](c2c(-c3ccc(F)cc3)[nH]c3c(F)cc(F)cc32)C1)N1CCC[C@H]1CO [Compound 210] | 250 to 1000 nM
O=C1NCCCC1NC(=O)[C@H]1C[C@H](c2c(-c3ccc(F)cc3)[nH]c3c(F)cc(F)cc32)C1 (stereo partly drawn) [Compound 23] | 250 to 1000 nM
O=C([C@H]1C[C@H](c2c(-c3ccc(F)cc3)[nH]c3c(F)cc(F)cc32)C1)N1CC[C@@H]1CO [Compound 195] | < 250 nM
O=C([C@H]1C[C@H](c2c(-c3ccc(F)cc3)[nH]c3c(F)cc(F)cc32)C1)N1CCOC[C@@H]1CO [Compound 219] | < 250 nM
Cn1cncc1CNC(=O)[C@H]1C[C@H](c2c(-c3ccc(F)cc3)[nH]c3c(F)cc(F)cc32)C1 [Compound 174] | 250 to 1000 nM
O=C(NCCn1cnnc1)[C@H]1C[C@H](c2c(-c3ccc(F)cc3)[nH]c3c(F)cc(F)cc32)C1 [Compound 39] | > 1000 nM
Cc1ccn(CCNC(=O)[C@H]2C[C@H](c3c(-c4ccc(F)cc4)[nH]c4c(F)cc(F)cc43)C2)n1 [Compound 35] | 250 to 1000 nM
O=C(NC1(CO)CCOC1)[C@H]1C[C@H](c2c(-c3ccc(F)cc3)[nH]c3c(F)cc(F)cc32)C1 (stereo partly drawn) [Compound 194] | < 250 nM
O=C(NCCn1cccc1)[C@H]1C[C@H](c2c(-c3ccc(F)cc3)[nH]c3c(F)cc(F)cc32)C1 [Compound 34] | 250 to 1000 nM
O=C(N[C@H]1CNC[C@@H]1O)[C@H]1C[C@H](c2c(-c3ccc(F)cc3)[nH]c3c(F)cc(F)cc32)C1 [Compound 212] | 250 to 1000 nM
Cn1ccc(NC(=O)[C@H]2C[C@H](c3c(-c4ccc(F)cc4)[nH]c4c(F)cc(F)cc43)C2)n1 [Compound 22] | 250 to 1000 nM
O=C(N[C@@H]1CCOC1)[C@H]1C[C@H](c2c(-c3ccc(F)cc3)[nH]c3c(F)cc(F)cc32)C1 [Compound 19] | 250 to 1000 nM
Cc1cnc(NC(=O)[C@H]2C[C@H](c3c(-c4ccc(F)cc4)[nH]c4c(F)cc(F)cc43)C2)o1 [Compound 24] | > 1000 nM
